Data reported in ChEMBL document CHEMBL3045261, “Study on the quantitative structuretoxicity relationships of benzoic acid derivatives in rats via oral LD50” (Med Chem Res, 2009).

Tested on: Rattus norvegicus
Test: Toxicity in po dosed Rattus norvegicus (rat)
Conditions: in vivo

Row | Structure (SMILES) | pLD50
1 | O=C(O)c1c(Cl)ccc(Cl)c1O | 7.35
2 | COC(=O)c1cc([N+](=O)[O-])ccc1Cl | 8.59
3 | Cc1ccc(OC(=O)c2ccccc2O)cc1 | 7.17
4 | COC(=O)c1cccc(C)c1O | 8.25
5 | CC(C)COC(=O)c1ccccc1O | 7.35
6 | CC(C)CCOC(=O)c1ccccc1O | 8.1
7 | O=C(O)c1c(Cl)ccc(Cl)c1Cl [2,3,6-TRICHLOROBENZOIC ACID] | 6.48
8 | COc1cccc(OC)c1C(=O)O [2,6-DIMETHOXYBENZOIC ACID] | 6.21
9 | COC(=O)c1ccccc1OC(N)=O [2-(AMINOCARBONYL)OXYBENZOIC ACID METHYL ESTER] | 7.82
10 | O=C(O)c1ccccc1C(=O)c1ccccc1 [2-BENZOYLBENZOIC ACID] | 8.43
11 | O=C(O)Cc1ccccc1C(=O)O [2-CARBOXYBENZENEACETIC ACID] | 6.21
12 | CNc1ccccc1C(=O)OC [2-METHYLAMINOBENZOIC ACID METHYL ESTER] | 8.13
13 | Nc1c(Cl)cc(Cl)cc1C(=O)O [3,5-DICHLOROANTHRANILIC ACID] | 8.32
14 | O=C(O)c1cc([N+](=O)[O-])cc([N+](=O)[O-])c1O [3,5-DINITROSALICYLIC ACID] | 6.76
15 | COc1c(Cl)ccc(Cl)c1C(=O)O [3,6 DICHLOROMETHOXYBENZOIC ACID] | 6.95
16 | O=C(O)c1ccc(Cl)c([N+](=O)[O-])c1 [4-CHLORO-3-NITROBENZOIC ACID] | 8.06
17 | CCOC(=O)c1ccc(OC)cc1 [4-METHOXYBENZOIC ACID ETHYL ESTER] | 7.62
18 | CCOC(=O)c1ccc([N+](=O)[O-])cc1 [4-NITROBENZOIC ACID ETHYL ESTER] | 7.89
19 | O=C(O)c1ccc([N+](=O)[O-])cc1 [4-NITROBENZOIC ACID] | 7.58
20 | O=C(Cl)c1ccc([N+](=O)[O-])cc1 [4-NITROBENZOYL CHLORIDE] | 8.63
21 | O=C(O)c1cc(Cl)ccc1O [5-CHLOROSALICYLIC ACID] | 5.52
22 | Nc1ccc(C(=O)O)cc1 [AMINOBENZOIC ACID] | 8.7
23 | Nc1ccccc1C(=O)O [ANTHRANILIC ACID] | 8.6
24 | CC(=O)Oc1ccccc1C(=O)O [ASPIRIN] | 5.3
25 | CCOC(=O)c1ccc(N)cc1 [BENZOCAINE] | 8.02
26 | CC(C)CCOC(=O)c1ccccc1 [BENZOIC ACID 1-(3-METHYL)BUTYL ESTER] | 8.75
27 | CC(C)OC(=O)c1ccccc1 [BENZOIC ACID 1-METHYLETHYL ESTER] | 8.22

Row | Structure (SMILES) | pLD50
28 | O=C(OCC1CO1)c1ccccc1 (centres undefined) [BENZOIC ACID 2,3-EPOXYPROPYL ESTER] | 7.25
29 | CC(C)COC(=O)c1ccccc1 [BENZOIC ACID 2-METHYLPROPYL ESTER] | 8.63
30 | O=C(Oc1cccc(O)c1)c1ccccc1 [BENZOIC ACID 3-HYDROXYPHENYL ESTER] | 6.68
31 | CC(C)=CCOC(=O)c1ccccc1 [BENZOIC ACID 3-METHYL-2-BUTENYL ESTER] | 8.46
32 | Cc1ccc(OC(=O)c2ccccc2)cc1 [BENZOIC ACID 4-METHYLPHENYL ESTER] | 7.88
33 | CCCCCCOC(=O)c1ccccc1 [BENZOIC ACID HEXYL ESTER] | 9.42
34 | C=COC(=O)c1ccccc1 [BENZOIC ACID VINYL ESTER] | 8.09
35 | O=C(O)c1ccccc1 [BENZOIC ACID] | 7.44
36 | O=C(Cl)c1ccccc1 [BENZOYL CHLORIDE] | 7.55
37 | O=C(OCc1ccccc1)c1ccccc1O [BENZYL SALICYLATE] | 7.71
38 | CCCCOC(=O)c1ccccc1N [BUTYL 2-AMINOBENZOATE] | 8.52
39 | Nc1cc(Cl)cc(C(=O)O)c1Cl [CHLORAMBEN] | 8.16
40 | CCOC(=O)c1ccccc1 [ETHYL BENZOATE] | 7.65
41 | CCOC(=O)c1ccccc1O [ETHYL SALICYLATE] | 7.191
42 | O=C(O)c1ccccc1OP(=O)(O)O [FOSFOSAL] | 7.01
43 | Cc1cccc(C(=O)O)c1O [HYDROXYTOLUIC ACID] | 6.1
44 | Nc1ccc(O)c(C(=O)O)c1 [MESALAMINE] | 7.94
45 | COC(=O)c1ccccc1OC [METHYL 2-METHOXYBENZOATE] | 8.241
46 | COC(=O)c1ccc(OC)cc1 [METHYL 4-METHOXYBENZOATE] | 8.52
47 | COC(=O)c1ccccc1O [METHYL SALICYLATE] | 6.79
48 | O=C(O)c1ccccc1/N=C/c1ccccc1 [N-BENZYLIDENEANTHRANILIC ACID] | 6.21
49 | O=C(O)c1ccc(O)cc1 [PARABEN] | 9.21
50 | O=C(Oc1ccccc1)c1ccccc1O [PHENYL SALICYLATE] | 8.01
51 | CCCOC(=O)c1cc(O)c(O)c(O)c1 [PROPYL GALLATE] | 7.65
52 | NC(=O)c1ccccc1O [SALICYLAMIDE] | 6.89
53 | O=C(O)c1ccccc1O [SALICYLIC ACID] | 6.791
54 | O=C(O)c1cc(S(=O)(=O)O)ccc1O [SULFOSALICYLIC] | 7.52
